Values after ≈ are worked out from the molar mass of the structure shown. Read-outs that look alike come from different tables or passages of the source.
What was measured:
[1] = spinosin prepared by the existing methods; cited from earlier work
[2] = tested on: cervical cancer cell line Hela; experiment: MTT assay, tumor cell proliferation; type: cell-based; details: 48 h; for IC50: MTT
Description: (§1) Colon cancer cell line HCT116, cervical cancer cell line Hela, breast cancer cell MCF-7, liver cancer cell HepG2 and normal colonic epithelial cell line FHC in the logarithmic phase were harvested and respectively made into a suspension. After counted, the suspensions were adjusted to 6000 cells/100 μL, and then 100 μL, of respective suspensions were seeded into a 96-well plate, and cultured at 37° C. and 5% CO2 overnight. After that, the culture medium was discarded, and the wells were respectively added with culture mediums containing different concentrations of spinosin-Na, such that final concentrations of the spinosin-Na were respectively 50, 100, 150, 200 and 250 μg/mL. 5 parallel wells were set for each concentration treatment. The cells were continuously cultured in the incubator for 48 h. After that, the culture medium was discarded, and the cells were washed twice with PBS, added with 20 μL of 5.0 mg/mL MTT and continuously cultured for 4 h. The culture medium was discarded, and respective wells were added with 150 μL of DMSO to dissolve formazan crystals produced by living cells. The plate was shaken on a shaker for 10 min, and then transferred to a microplate reader for the measurement of absorbance at 570 nm.
(§2) The antitumor activity of different concentrations of spinosin (100, 200, 300, 400, 500 μg/mL) was measured by the same method described above.

[3] = tested on: Colon cancer cell line HCT116; experiment: MTT assay, tumor cell proliferation; type: cell-based; details: 48 h; for IC50: HCT-116, MTT
Description: as §1, §2

[4] = tested on: colon cancer cells HCT116; experiment: Annexin V/PI flow cytometry apoptosis; type: cell-based; details: HCT116, 48 h
Description: (§3) HCT116 and Hela cells in the logarithmic phase were harvested, digested with 0.25% trypsin, and seeded into a 6-well cell culture plate at a density of 1×10^5 cells per petri dish. The cells were cultured at 37° C. and 5% CO2 in an incubator overnight. After the cell adhesion was observed, the culture medium was replaced, and the dishes were respectively added with different concentrations of spinosin-Na. At the same time, a blank control was set, and each concentration treatment was performed in triplicate. The cells were continuously cultured in the incubator under the same conditions for 48 h. After that, the adherent cells were digested with 0.25% trypsin followed by centrifugation at 1,000 rpm for 5 min. The supernatant was discarded, and the cells were washed twice with PBS. The cells were suspended with 200 μL of a mixture of Annexin V and Binding buffer and reacted at 4° C. in the dark for 30 min. 300 μL of a mixed solution of PI and Binding buffer was added to each sample 5 min before the test. The double-stained cells were detected by flow cytometry to identify normal cells, early apoptotic cells, late apoptotic cells and necrotic cells, determining the apoptosis rate. […]

[5] = tested on: cervical cancer cells Hela; experiment: Annexin V/PI flow cytometry apoptosis; type: cell-based; details: 48 h
Description: as §3

Water solubility = type: physicochemical
liver cancer cell HepG2 = experiment: MTT assay, tumor cell proliferation; type: cell-based; details: 48 h
Description: as §1, §2

breast cancer cell MCF-7 = experiment: MTT assay, tumor cell proliferation; type: cell-based; details: 48 h
Description: as §1, §2

[6] = tested on: normal colonic epithelial cell line FHC; experiment: MTT assay, normal cell proliferation; type: cell-based; details: 50-250 μg/mL, 48 h
Description: as §1, §2

| Compound | water solubility [1] | IC50 [2] [µg/mL] | IC50 [3] [µg/mL] | apoptosis of tumor cells [4] | apoptosis of tumor cells [5] | water solubility (Water solubility) | proliferation of tumor cells ([2]; 50-250 μg/mL) | proliferation of tumor cells (liver cancer cell HepG2; HepG2, 50-250 μg/mL) | IC50 (liver cancer cell HepG2; HepG2, MTT) [µg/mL] | IC50 (breast cancer cell MCF-7; MCF7, MTT) [µg/mL] | proliferation of tumor cells (breast cancer cell MCF-7; MCF-7, 50-250 μg/mL) | proliferation of tumor cells ([3]; HCT116, 50-250 μg/mL) | effect on proliferation of normal cells [6] |
| --- | --- | --- | --- | --- | --- | --- | --- | --- | --- | --- | --- | --- | --- |
| COc1cc2oc(-c3ccc(O)cc3)cc(=O)c2c(O)c1[C@@H]1O[C@H](CO)[C@@H](O)[C@H](O)[C@H]1O[C@@H]1O[C@H](CO)[C@@H](O)[C@H](O)[C@H]1O [Spinosin, spinosin] | poor water-solubility | 687.60 ± 2132 (≈ 1130 µM) | 732.71 ± 18.97 (≈ 1200 µM) |  |  |  |  |  |  |  |  |  |  |
| spinosin-Na |  | 178.41 ± 6.83 | 147.20 ± 4.65 | significantly induce the apoptosis | significantly induce the apoptosis | good water solubility | significantly inhibit the proliferation | significantly inhibit the proliferation | 444.08 ± 15.21 | 291.79 ± 10.49 | significantly inhibit the proliferation | significantly inhibit the proliferation | no significant effect |

Reference: patent US20210008142A1, “PREPARATION AND USES OF SPINOSIN-Na FROM ZIZIPHI SPINOSAE SEMEN” (Shanxi University, priority 2019, published 2021)
